This is an account of results in article PMC10609061, “Detection of Various Traditional Chinese Medicinal Metabolites as Angiotensin-Converting Enzyme Inhibitors: Molecular Docking, Activity Testing, and Surface Plasmon Resonance Approaches” (Molecules, 2023).

For assay [1], the target named is T1, recombinant soluble C domain of ACE1 (sACE1) (Homo sapiens, UniProt P12821).
T1 construct: The cDNA coding for the soluble C domain of ACE1 (Ile640-Ala1231) was obtained by PCR amplification; HSA signal peptide (N); made in house; host or cells: HEK293 (transient transfection, protein purified from the culture supernatant)
The experiment in a line: SPR determination of affinity between TCM metabolites and immobilized sACE1 (Biacore T200, CM5 chip). In kind it is binding. Particulars: for Binding to sACE1 by SPR (in words): SPR assay; for Kd: SPR, sACE1 on CM5 chip, 0.39-50.0 µM metabolite, 25 °C, read-out: KD (equilibrium dissociation constant). Background: In SPR one partner is held on a chip, and binding of the other changes the refractive index at the surface.

Assay [2] has as its system ACE1 (angiotensin-converting enzyme). Description: ACE inhibition measurement with ACE1 activity test kit (fluorescence). Type of assay: biochemical. Particulars: for Inhibition rate (%) of ACE1 activity, relative to captopril taken as 100%: TCM metabolite at 25 uM.

T1 sequence (P12821 640-1231): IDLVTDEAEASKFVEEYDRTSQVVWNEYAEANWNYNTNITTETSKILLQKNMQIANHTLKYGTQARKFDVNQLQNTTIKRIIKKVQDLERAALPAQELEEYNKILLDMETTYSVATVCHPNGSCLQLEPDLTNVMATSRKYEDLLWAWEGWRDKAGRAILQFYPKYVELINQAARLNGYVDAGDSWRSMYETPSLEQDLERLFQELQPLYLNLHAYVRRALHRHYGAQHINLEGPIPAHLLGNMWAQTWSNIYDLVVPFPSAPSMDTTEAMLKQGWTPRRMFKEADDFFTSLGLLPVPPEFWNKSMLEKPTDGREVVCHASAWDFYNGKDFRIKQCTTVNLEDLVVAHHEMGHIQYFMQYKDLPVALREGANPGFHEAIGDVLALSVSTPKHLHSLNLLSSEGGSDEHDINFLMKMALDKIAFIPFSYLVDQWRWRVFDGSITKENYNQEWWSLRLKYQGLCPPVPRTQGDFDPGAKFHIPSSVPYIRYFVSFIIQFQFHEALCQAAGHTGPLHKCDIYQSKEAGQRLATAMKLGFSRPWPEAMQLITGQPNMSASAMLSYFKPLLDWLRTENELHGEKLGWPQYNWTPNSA

As usually defined, the Kd is the free concentration of one partner at which half of the binding sites on the other are occupied at equilibrium, for simple one-to-one binding. As to `O=c1cc(-c2ccc(O)c(O)c2)oc2cc(O)c([C@@H]3O[C@H](CO)[C@@H](O)[C@H](O)[C@H]3O)c(O)c12` [Homoorientin], in assay [1], the “Binding to sACE1 by SPR (in words)” value is listed as “bound to sACE1 on the chip in a dose-dependent manner” and the Kd is 10.2 µM.

`C[C@H](CS)C(=O)N1CCC[C@H]1C(=O)O` [Captopril, reference compound]: the “Inhibition rate (%) of ACE1 activity” value in assay [2] (captopril (positive control) at 1 uM) came out at 101.5%.

Turning to `O=c1cc(-c2ccc(O)c(O)c2)oc2c([C@@H]3O[C@H](CO)[C@@H](O)[C@H](O)[C@H]3O)c(O)cc(O)c12` [Orientin], in assay [1], the “Binding to sACE1 by SPR (in words)” value is on record as “bound to sACE1 on the chip in a dose-dependent manner” and the dissociation constant (Kd) amounted to 9.32 µM.

With `Oc1ccc(/C=C/c2cc(O)cc(O)c2)cc1` [Resveratrol], the “ACE1 inhibition in vitro (in words)” value in assay [2] (enzyme activity test) is reported as “did not inhibit ACE1 in vitro”.

In the case of Procyanidin, the “Binding to sACE1 by SPR (in words)” value in assay [1] was “bound to sACE1 on the chip in a dose-dependent manner”. Besides, the “Inhibition rate (%) of ACE1 activity, relative to captopril taken as 100%” value in assay [2] was found to be 67.5%.

`O=c1c(-c2ccc(O)cc2)coc2c([C@@H]3O[C@H](CO)[C@@H](O)[C@H](O)[C@H]3O)c(O)ccc12` [Puerarin]: in assay [1], the “Binding to sACE1 by SPR (in words)” value is given as “bound to sACE1 on the chip in a dose-dependent manner” and the Kd was 13.8 µM.

Regarding `O=c1c(O)c(-c2ccc(O)c(O)c2)oc2cc(O)cc(O)c12` [Quercetin], the “Binding to sACE1 by SPR (in words)” value in assay [1] is “bound to sACE1 on the chip in a dose-dependent manner”.

With `O=c1c(O[C@@H]2O[C@H](CO)[C@@H](O)[C@H](O)[C@H]2O)c(-c2ccc(O)c(O)c2)oc2cc(O)cc(O)c12` [Isoquercitrin], in assay [1], the “Binding to sACE1 by SPR (in words)” value is given as “bound to sACE1 on the chip in a dose-dependent manner” and the equilibrium dissociation constant (Kd) worked out at 5.76 µM. Moreover, in assay [2], the “Inhibition rate (%) of ACE1 activity, relative to captopril taken as 100%” value is 35.6%.

As for `Oc1cc(O)c2c(c1)O[C@H](c1ccc(O)c(O)c1)[C@@H](O)C2` [Cianidanol], in assay [1], the “Binding to sACE1 by SPR (in words)” value is recorded as “bound to sACE1 on the chip in a dose-dependent manner” and the Kd came out at 48.3 µM.
